# Laboratory results: PMC13070491, “Single-nucleus transcriptomics, pharmacokinetics, and pharmacodynamics of CDK4/6 and mTOR inhibition in a Phase 0/1 trial of recurrent high-grade glioma” (Neuro-Oncology, 2025)
# Columns and labels:
# [1] = tested on: mTOR; details: threshold basis for Phase 1 expansion; no reference given; read-out: biochemical IC50; cited from earlier work
# [2] = tested on: pRb; test: IHC of tumor tissue, pRb positive cells, archival vs Phase 0 surgical sample; type: in vivo, human; details: IDH-wildtype patients n = 20; paired t-test P = .25; 5 days ribociclib + everolimus
# [3] = tested on: CDK4/6; details: threshold basis for Phase 1 expansion; no reference given; read-out: biochemical IC50; cited from earlier work
# [4] = tested on: malignant cells of recurrent IDH-wildtype glioblastoma; test: Single nucleus RNA sequencing of tumor samples, malignant cell state proportions vs standard-of-care cohorts; type: in vivo, human
# Source text: Count matrices were loaded into R using Seurat's (version 4.3.0) Read10X function. Cells were filtered based on the following quality control criteria: number of genes detected greater than 500 and fewer than 10 000; maximum percentage of mitochondrial genes of 5%. DoubletFinder was used to identify potential nuclei doublets, which were filtered out.[17] The expression data were processed by normalization, scaling, PCA based on genes differentially expressed across brain cell types, Harmony batch correction for sample preparation batch,[18] Uniform Manifold Approximation and Projection (UMAP), and clustering using the Louvain algorithm, and resolution set to 0.6. Cell type annotation was based on gene expression markers for each cluster and confirmed via mapping to a normal reference brain atlas (Azimuth). […] (https://github.com/broadinstitute/[…]) was used to confirm malignant status based on the presence of copy number alterations. […] HMM-predicted copy number alteration levels were extracted to define malignant and nonmalignant cells based on the following approach. […] Putative malignant cells not meeting this threshold were labelled as unresolved and excluded. Cells assigned to a nonmalignant gene expression cluster with 25% of chromosome 7 inferred gain and/or 25% of chromosome 10 inferred loss were labelled as unresolved and excluded. Samples with fewer than 25 malignant cells were excluded from malignant state analysis. […] Cell cycle status was assigned independent of […] cell state. Cells were classified as AC-like, etc., along with its cell cycle status-cycling or not.
Compound,IC50 [1] [nM],"change in phosphorylated Rb, surgical samples vs matched archival tissue [2]",IC50 [3] [nM],"proportion of malignant cells actively cycling vs standard treatment cohorts (snRNAseq) ([4]; n = 17 ribociclib-exposed vs CARE n = 57 and Wang et al. n = 31, P = 3.2E-03 and P = 2.0E-04)","neural progenitor-like (NPC-like) state vs standard treatment cohorts (snRNAseq) ([4]; n = 17 ribociclib-exposed vs CARE n = 57 and Wang et al. n = 31, P = 5.8E-05, P = 1.8E-03)","fraction of NPC-like malignant cells, Phase 2 (104 days) vs Phase 0 (5-day) sample of one patient ([4]; ribociclib monotherapy, single case, snRNAseq)"
"CO[C@H]1C[C@@H]2CC[C@@H](C)[C@@](O)(O2)C(=O)C(=O)N2CCCC[C@H]2C(=O)O[C@H]([C@H](C)C[C@@H]2CC[C@@H](OCCO)[C@H](OC)C2)CC(=O)[C@H](C)/C=C(\C)[C@@H](O)[C@@H](OC)C(=O)[C@H](C)C[C@H](C)/C=C/C=C/C=C/1C [Everolimus, everolimus]",2,–,–,–,–,–
"CN(C)C(=O)c1cc2cnc(Nc3ccc(N4CCNCC4)cn3)nc2n1C1CCCC1 [Ribociclib, ribociclib]",–,nonsignificant decrease,40,lower proportion,decrease,reduced fraction
